Data as given in patent US20200239530A1, “COMPOUNDS AND METHODS OF MODULATING PROTEIN DEGRADATION” (Vividion Therapeutics, Inc., priority 2017, published 2020).

Target: T1, TBC1D15 TBC1 domain family member 15 (Homo sapiens, UniProt Q8TC07)
T1 construct: Cells were resuspended in cold PBS on ice and sonicated with a probe sonicator to achieve lysis; endogenous in cells
T1 sequence (Q8TC07 1-691): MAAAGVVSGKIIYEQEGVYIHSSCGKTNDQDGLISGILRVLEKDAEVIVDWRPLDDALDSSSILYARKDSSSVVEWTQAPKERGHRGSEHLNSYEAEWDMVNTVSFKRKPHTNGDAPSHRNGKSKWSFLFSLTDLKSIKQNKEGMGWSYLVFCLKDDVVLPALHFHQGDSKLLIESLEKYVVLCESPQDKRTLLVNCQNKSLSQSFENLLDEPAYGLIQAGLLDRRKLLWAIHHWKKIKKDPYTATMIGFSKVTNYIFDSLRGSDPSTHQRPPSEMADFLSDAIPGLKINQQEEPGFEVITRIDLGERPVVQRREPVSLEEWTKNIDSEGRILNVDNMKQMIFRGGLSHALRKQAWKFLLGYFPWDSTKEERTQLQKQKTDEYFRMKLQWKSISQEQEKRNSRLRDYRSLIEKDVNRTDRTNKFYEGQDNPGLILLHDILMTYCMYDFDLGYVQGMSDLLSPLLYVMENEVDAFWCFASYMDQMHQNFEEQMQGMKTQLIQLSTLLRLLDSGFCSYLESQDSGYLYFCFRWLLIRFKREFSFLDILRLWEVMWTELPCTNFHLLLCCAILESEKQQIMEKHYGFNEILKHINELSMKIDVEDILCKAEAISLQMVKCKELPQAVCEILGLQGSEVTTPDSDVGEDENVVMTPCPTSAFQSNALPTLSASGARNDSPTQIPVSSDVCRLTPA
Test: Cysteine liganding, probe competition
Type: binding
How it was run: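 Probe competition in native proteome: 5 mg/ml lysate, compound 1 hr 25° C, then desthiobiotin iodoacetamide (10 mM stock) 1 hr 25° C; acetone ppt, urea/DTT reduction, iodoacetamide alkylation, trypsin, streptavidin pull-down.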

SMILES | Liganded (TBC1D15 Res# 24, uniprot Q8TC07) | 100 Max (uniprot Q8TC07) | 100 ave (uniprot Q8TC07) | 500 Max (uniprot Q8TC07) | 500 ave (uniprot Q8TC07)
COc1ccc2c(c1)CCCN2C(=O)CCl [KB02] | YES |  |  |  | 
O=C(CCl)Nc1cc(C(F)(F)F)cc(C(F)(F)F)c1 [KBO3] |  | 7.83 | 0.88 | 47.51 | 47.51
